Source: patent publication US20240407993A1, “PEPTIDE HAVING ANTI-AGING ACTIVITY, AND USE THEREOF” (CAREGEN CO., LTD., priority 2021, published 2024)

Experiments:
Format in all cases: cell-based, mouse
[1] = test system: Col1a1; experiment: Col1a1 (collagen) gene expression by RT-PCR in fibroblasts; details: NIH3T3 cells, peptide 1, 10, 50 μM, 24 hours; FIGS. 1A, 1B
Protocol: First, NIH3T3 cells (mouse fibroblast cell line) were seeded in a 6-well plate at a cell density of 3×10^5 cell/well, and then the cells were cultured in DMEM medium containing 10% fetal bovine serum (FBS) for 24 hours. The cultured cells were washed once with serum free DMEM medium, and the peptide of the present invention was mixed in 1 mL of the serum free DMEM medium at each of concentrations of 1, 10, and 50 μM, and dispensed into the cells. A positive control (PC) was treated with 5 ng/ml of TGF-β1 instead of the above peptide. The cells were cultured in a CO2 incubator at 37° C. for 24 hours.
The cultured cells were washed twice with PBS, and RNA was extracted from the cells using easy blue (iNtRON, Cat. No.: 17061, Korea). The amount of RNA extracted was quantified, 1,000 ng of RNA was added per tube, and RT reaction was performed using a kit (enzynomics, Cat. No.: PT200, Korea). RT-PCR was performed using a PCR kit (enzynomics, Cat. No.: […], Korea). The sequences of the primers of collagen, fibronectin, and elastin used in RT-PCR and the sequence of the primer of GAPDH used to compare the total RNA amount of each treatment group are shown in [Table 2].

[2] = test system: NIH3T3 cells; experiment: Intracellular ROS level after UVA irradiation (DCFH-DA, FACS) in fibroblasts; details: 8 J/cm^2 UVA, peptide 1, 10, 50 μM, 24 hours after irradiation, FIG. 4A
Protocol: The reactive oxygen species level increases when UV is irradiated. Therefore, it was confirmed whether the reactive oxygen species level decreased again and the aging phenomenon caused by oxidative stress in cells was inhibited when treated with the peptide of the present invention.
(§1) First, NIH3T3 cells and HaCaT cells were seeded in a 6-well plate at a cell density of 5×10^5 cell/well, respectively, and then the cells were cultured in DMEM medium containing 10% fetal bovine serum (FBS) for 24 hours. The cultured cells were washed once with serum free DMEM medium, and then the peptide of the present invention was mixed in 1 mL of the serum free DMEM medium at each of concentrations of 1, 10, and 50 μM, and dispensed into the cells. A positive control (PC) was treated with 2.5 mM of N-Acetylcysteine (NaC) instead of the above peptide.
The cells were cultured in a CO2 incubator at 37° C. for 1 hour. The medium of the cultured cells was transferred to a tube, 1 ml of PBS was added, and then the NIH3T3 cells were irradiated with 8 J/cm^2 of UVA and the HaCaT cells were irradiated with 15 mJ/cm^2 of UVB using a UV irradiator (VILBER LOURMAT, Cat No.: 3102-BSU, France). […] After centrifugation, the cells were washed with PBS, and a fluorescence value was measured through FACS.

[3] = test system: MMP-1; experiment: MMP-1 protein expression increased by UV irradiation, western blot in fibroblasts; details: NIH3T3 cells, 6 J/cm^2 UVA, peptide 1, 10, 50 μM, 24 hours after irradiation; FIG. 6A
Protocol: The expression of MMP-1 encoding proteins related to collagen degradation increases by ultraviolet irradiation. Therefore, it was confirmed whether the expression of the MMP-1 protein was inhibited again and the cell aging phenomenon was inhibited when treated with the peptide of the present invention.
as §1, with “medium, and the peptide” for “medium, and then the peptide”
The cells were cultured in a CO2 incubator at 37° C. for 1 hour. The medium of the cultured cells was transferred to a tube (e-tube), 1 ml of PBS was added, and then the NIH3T3 cells were irradiated with 6 J/cm^2 of UVA and the HaCaT cells were irradiated with 15 mJ/cm^2 of UVB using a UV irradiator (VILBER LOURMAT, Cat No.: 3102-BSU, France). After removing PBS, 900 μL of the medium transferred to the tube was added, and culture was performed in a CO2 incubator at 37° C. for 24 hours. […]

With LCACCLHNCNECQ the “expression of the collagen (Col1a1) gene” value [1] was “gradually increased as a concentration of the peptide increased”, the “intracellular reactive oxygen species level increased by UV irradiation” value [2] was “decreased” and the “expression of MMP-1 increased by UV irradiation” value [3] was “inhibited”.
